Data on 16 compounds can be found in ChEMBL document CHEMBL1122763, “Synthesis and biological activity of certain 3,4-disubstituted pyrazolo[3,4-d]pyrimidine nucleosides” (J Med Chem, 1984).

By Inhibition is commonly meant the change of the read-out against control, counted positive when it falls. Low values mean a response near the control, high ones a response far below the control.

Active and inactive are the calls of the source. No cut-off for these calls is given here.

Series [1] has as its system Vero. The series can be described thus: Virus rating was determined by comparing cytopathic effect against vero cells after infection with Herpes simplex virus-1. The class given is functional, Chlorocebus sabaeus.
For series [2], the system named is Leishmania tropica. The series can be described thus: Concentration in the culture media that produced 50% inhibition of the leishmania tropica growth; Range is 76-190. The class given is functional. The settings on record: read-out: ED50 (the source's name).
Series [3] deals with Vero. In words: Virus rating was determined by comparing cytopathic effect against vero cells after infection with Vesicular stomatitis virus. The class given is functional, Chlorocebus sabaeus.
Series [4] in a line: (§1) Toxic level was determined; Non toxic. It counts as functional.
Series [5] has as its system Vero. In words: Virus rating was determined by comparing cytopathic effect against vero cells after infection with Parainfluenza type 3 (para 3). It counts as functional, Chlorocebus sabaeus.
The test system of series [6] is Leishmania tropica. The series can be described thus: Concentration in the culture media that produced 50% inhibition of the leishmania tropica growth. It counts as functional. The settings on record: for EC50: read-out: ED50 (the source's name).
Series [7] in a line: as §1. It counts as ADME.
Series [8] relates to P388. In words: Compound was evaluated for inhibition of P388 lymphoid neoplasm cells. The class given is functional. The note with it: Mus musculus, read-out: ID50 (the source's name).
The test system of series [9] is Vero. The series can be described thus: Virus rating was determined by comparing cytopathic effect against vero cells after infection with Vaccinia virus. It counts as functional, Chlorocebus sabaeus.
The subject of series [10] is L1210. The series can be described thus: Compound was evaluated for inhibition of L1210 leukemia cells. It counts as functional. The settings on record: Mus musculus, read-out: ID50 (the source's name).
A short description of series [11]: Toxic level was determined. The class given is ADME.
The test system of series [12] is L1210. In words: Percent inhibition at a concentration 10 E -4 against L1210 leukemia cells; Inactive. It counts as functional, cell-based. The settings on record: Mus musculus.
Series [13] relates to P388. In words: Percent inhibition at a concentration 10 E -4 against P388 lymphoid neoplasm cells. It counts as functional, Mus musculus.
Series [14] relates to B16. The series can be described thus: 50% inhibition of the tumor cell growth as compared to the untreated controls against B16 melanoma cells. It counts as functional. The settings on record: Mus musculus, read-out: ID50 (the source's name).
Series [15] relates to Lewis lung carcinoma cell line. In words: 50% inhibition of the tumor cell growth as compared to the untreated controls against Lewis lung cells. It counts as functional. The note with it: Mus musculus, read-out: ID50 (the source's name).
For series [16], the system named is P388. The series can be described thus: Percent inhibition at a concentration 10 E -4 against P388 lymphoid neoplasm cells; Inactive. It counts as functional, cell-based. The note with it: Mus musculus.
For series [17], the system named is P388. The series can be described thus: Compound was evaluated for inhibition against P388 lymphoid neoplasm cells. The settings on record: Mus musculus, read-out: ID50 (the source's name). It counts as functional.
Series [18] concerns L1210. The series can be described thus: Compound was evaluated for inhibition against L1210 leukemia cells. It counts as functional. The settings on record: Mus musculus, read-out: ID50 (the source's name).
The subject of series [19] is B16. In words: 50% inhibition of the tumor cell growth as compared to the untreated controls against B16 melanoma cells; Inactive. The class given is functional, cell-based. The note with it: Mus musculus.
Series [20] relates to Lewis lung carcinoma cell line. The series can be described thus: 50% inhibition of the tumor cell growth as compared to the untreated controls against Lewis lung cells; Inactive. The class given is functional, cell-based. The note with it: Mus musculus.
In series [21] the test system is L1210. In words: Percent inhibition at a concentration 10 E -4 against L1210 leukemia cells. The class given is functional, Mus musculus.
Series [22] has as its system P388. The series can be described thus: Inhibition at a concentration 10 E -4 against P388 lymphoid neoplasm cells; Inactive. It counts as functional, cell-based. The note with it: Mus musculus.
For series [23], the system named is B16. The series can be described thus: Percent inhibition of the tumor cell growth as compared to the untreated controls against B16 melanoma cells at a concentration of 10 E-4. It counts as functional, Mus musculus.

On to `O=c1[nH]cnc2c1cnn2[C@@H]1O[C@H](CO)[C@@H](O)[C@H]1O`, for which the Virus rating in the series on Vero [1] was 0; with Vero [3] it was 0.3; with Vero [5], 0.2. Besides, in the series on Leishmania tropica [2], the EC50 was 76 µM. The compound further had a Toxic level in series [4] of 5 mM.

Turning to `OC[C@H]1OC(n2ncc3c(S)ncnc32)[C@H](O)[C@@H]1O` (some centres not stated), in the series with Leishmania tropica [6], the EC50 worked out at 72 µM.

Regarding `N#Cc1nn(C2O[C@H](CO)[C@@H](O)[C@H]2O)c2ncnc(S)c12` (some centres not stated), the Toxic level in [7] was 5 mM. In addition, the Virus rating in the series on Vero [1] came to 1; in the series with Vero [9], 1.24; with Vero [3] it was 0.56; with Vero [5], 1.1. Also, the IC50 with P388 [8] is 0.32 µM; in the series with L1210 [10], 0.14 µM.

Turning to `CNc1nn(C2O[C@H](CO)[C@@H](O)[C@H]2O)c2nc[nH]c(=O)c12` (some centres not stated), the values for the Virus rating in the series with Vero [1], with Vero [9] and with Vero [5] were 0, 0.2 and 0.1, respectively. The compound further gave a Toxic level in [11] of 1.6 mM. Moreover, in the series on L1210 [12], the inhibition result was “inactive”. Further, the Inhibition in the series with P388 [13] turned out to be 20%.

As for `NC(=S)c1nn(C2O[C@H](CO)[C@@H](O)[C@H]2O)c2nc[nH]c(=O)c12` (some centres not stated), the IC50 was 16 µM in the series with B16 [14], 0.6 µM with P388 [8], 2.4 µM in series [15] and 0.36 µM in the series with L1210 [10]. Further, the Virus rating came to 0 with Vero [1], 0.4 in the series with Vero [9] and 1.15 in the series with Vero [5]. This compound also had a Toxic level in series [11] of 5 mM.

For `CSc1nn(C2O[C@H](CO)[C@@H](O)[C@H]2O)c2nc[nH]c(=O)c12` (some centres not stated), the results for the Virus rating with Vero [1], in the series on Vero [9] and with Vero [5] were 0.16, 0 and 0.11, respectively. The compound further came in with a Toxic level in series [11] of 5 mM. For the same compound, the inhibition result in the series with L1210 [12] was “inactive”. Moreover, the Inhibition in the series on P388 [13] worked out at 16%.

In the case of `N=C(NO)c1nn(C2O[C@H](CO)[C@@H](O)[C@H]2O)c2nc[nH]c(=O)c12` (some centres not stated), the Virus rating with Vero [1] amounted to 0.1; with Vero [9], 0.12; in the series on Vero [3], 0.35; in the series on Vero [5] it was 0.2. The ID50 result with L1210 [12] and in the series on P388 [16] was “inactive” in each case. This compound also showed a Toxic level in series [4] of 5 mM.

Consider `N#Cc1nn(C2O[C@H](CO)[C@@H](O)[C@H]2O)c2nc[nH]c(=O)c12` (some centres not stated), for which the IC50 is 7 µM with B16 [14], 0.46 µM with P388 [17], 250 µM in series [15] and 0.2 µM in the series with L1210 [18]. In addition, the Virus rating in the series with Vero [1] turned out to be 0.25; in the series with Vero [9], 0.55; in the series on Vero [3] it was 0; in the series on Vero [5] it was 0.32. The Toxic level in [4] is 5 mM.

Turning to `Nc1nn(C2O[C@H](CO)[C@@H](O)[C@H]2O)c2nc[nH]c(=O)c12` (some centres not stated), the Virus rating in the series on Vero [1] is recorded as 0.15; in the series with Vero [9] it was 0.45; in the series on Vero [3], 0; with Vero [5] it was 0.3. In addition, the ID50 result (in the series with B16 [19]; in series [20]) was “inactive” each time. The Toxic level in series [11] was determined as 5 mM. Moreover, in the series with Leishmania tropica [6], the EC50 was over 177 µM. Moreover, the inhibition result with L1210 [12] and with P388 [16] was “inactive” in each case.

Consider `Cl.N=C(N)c1nn(C2O[C@H](CO)[C@H](O)[C@@H]2O)c2ncnc(O)c12` (some centres not stated), for which the IC50 with B16 [14] was 3.8 µM; with P388 [8], 0.37 µM; in series [15], 6.4 µM; with L1210 [10] it was 0.23 µM. For the same compound, the Virus rating with Vero [1] was 0.2; in the series with Vero [9], 0.31; in the series with Vero [3], 0; in the series on Vero [5], 1.1. Further, the Toxic level in series [11] amounted to 5 mM.

Turning to `Nc1ncnc2c1c(Br)nn2C1O[C@H](CO)[C@@H](O)[C@H]1O` (some centres not stated), the Virus rating with Vero [1] is on record as 0.4; in the series on Vero [9], 0.1; with Vero [3], 0; in the series on Vero [5], 0.2. The same compound showed a Toxic level in series [11] of 0.5 mM. Moreover, the inhibition entry in the series with P388 [16] was “inactive”. Further, the Inhibition in the series on L1210 [21] worked out at 28%.

On to `Nc1ncnc2c1c(N)nn2C1O[C@H](CO)[C@@H](O)[C@H]1O` (some centres not stated), for which the Virus rating is listed as 1.3 with Vero [1], 0.4 with Vero [9], 0.25 in the series with Vero [3] and 0.45 with Vero [5]. Besides, the Toxic level in series [4] turned out to be 5 mM. Moreover, the ID50 entry in the series with P388 [22] is “inactive”.

In the case of `NC(=O)c1nn(C2O[C@H](CO)[C@@H](O)[C@H]2O)c2nc[nH]c(=O)c12` (some centres not stated), the Virus rating with Vero [1] is given as 0; in the series with Vero [9], 0.4; in the series on Vero [3], 0; in the series on Vero [5], 0.3. Moreover, the IC50 came to 18 µM with P388 [8], 20 µM in series [15] and 13 µM in the series on L1210 [10]. Further, the Toxic level in series [11] came out at 5 mM. For the same compound, in the series on B16 [23], the Inhibition stood at 37%.

For `O=Nn1c(=O)c2c(O)ncnc2n1C1O[C@H](CO)[C@@H](O)[C@H]1O` (some centres not stated), the IC50 in the series with B16 [14] is 80 µM; with P388 [8], 0.16 µM; in [15], 2.5 µM; in the series with L1210 [10], 0.43 µM. Further, the Virus rating came to 0.35 in the series with Vero [1], 0.8 with Vero [9], 0 with Vero [3] and 0.45 in the series with Vero [5]. This compound yielded a Toxic level in series [11] of 5 mM. In addition, the EC50 in the series on Leishmania tropica [6] was over 160 µM.

With `N#Cc1nn(C2O[C@H](CO)[C@@H](O)[C@H]2O)c2ncnc(N)c12` (some centres not stated), the IC50 with L1210 [10] was determined as 0.079 µM.

For `O=c1[nH]cnc2c1c(Br)nn2C1O[C@H](CO)[C@@H](O)[C@H]1O` (some centres not stated), the figures for the Virus rating in the series with Vero [1] and with Vero [5] were 0.2 and 0.03, respectively. Further, the Toxic level in series [11] stood at 5 mM. The IC50 in the series with Leishmania tropica [6] (read-out: ID50 (the source's name)) was over 15 µM. In addition, the Inhibition with P388 [13] was 28%; with L1210 [21], 25%.
